In brackets after ≈: the same amount, converted by molar mass.
Legend:
Assay in all cases: standard microtiter assay, minimum inhibitory concentration
Type in all cases: cell-based
[1] = test system: Staphylococcus saprophyticus; settings: for MIC: Table 5 organism 6 S. saprophyticus
From the text: (§1) Representative results of standard microtiter assays are reported in Tables 1, 2 and 3 which follow, as the minimum inhibitory concentration of antibiotic (μg/ml).
(§2) In Table 1, test organisms 1-13 were different strains of Staphylococcus aureus, and 14-16 were different strains of Staphylococcus epidermidis. In Table 2, test organisms 1-5 were different strains of S. aureus; 6, 8, 12 and 14 were different strains of S. epidermidis; 7 was a Staphylococcus haemolyticus; 9 and 10 were different strains of Streptococcus faecalis; 11 was a Streptococcus pyogenes; and 13 was a Staphylococcus saprophyticus. In Table 3, test organisms 1-3 were different strains of S. aureus; 4 and 6 were different strains of S. epidermidis; 5 was a S. haemolyticus and 7 and 8 were different strains of Streptococcus faecalis. Except where individual components are indicated, the CWI-785 antibiotic employed was the CWI-785 complex; in some cases, HCl salts of the CWI-785 antibiotic were employed.
(§3) In Table 5 are shown data from standard microtiter assays carried out in a presence of no serum, 50% human serum (hum.) and 50% mouse serum (mse.). The test organisms were 1: S. aureus; 2,4 and 5: different strains of S. epidermidis; 3: S. haemolyticus; 6: S. saprophyticus; 7 and 8: different strains of S. faecalis.

[2] = test system: Staphylococcus epidermidis
From the text: as §1, §2, §3

[3] = test system: Staphylococcus haemolyticus; settings: for MIC: Table 5 organism 3 S. haemolyticus
From the text: as §1, §2, §3

Streptococcus faecalis = test system: Streptococcus faecalis
From the text: as §1, §2
(§4) The number of strains tested is shown in parentheses below each organism. The average MIC is reported in μg/ml.
as §3

Staphylococcus aureus = settings: for MIC: Table 5 organism 1 S. aureus
From the text: as §1, §2, §4, §3

Streptococcus pyogenes = settings: Table 2 test organism 11, Streptococcus pyogenes
From the text: as §1, §2

Q: For `CNC(C(=O)NC1C(=O)NC(CC[S+](C)[O-])C(=O)NC2C(=O)NC3C(=O)NC(C(=O)NC(C(=O)O)c4cc(O)cc(O)c4-c4cc3ccc4O)C(OC3CC(N)C(O)C(C)O3)c3ccc(c(Cl)c3)Oc3cc2cc(c3O)Oc2ccc(cc2)C1O)c1ccc(O)cc1` (centres unmarked) [HPB3], which minimum inhibitory concentration ([1]; Table 2 test organism 13, Staphylococcus saprophyticus) is on record?
A: 0.8 µg/mL (≈ 0.612 µM)

Q: What about the MIC ([1]; 50% Hum. Serum) of the same compound?
A: 3.1 µg/mL (≈ 2.37 µM)

Q: What about the MIC ([1]; 50% Mse. Serum) of the same compound?
A: 3.1 µg/mL (≈ 2.37 µM)

Q: What about the MIC ([1]; No Serum) of the same compound?
A: 0.8 µg/mL (≈ 0.612 µM)

Q: What about the minimum inhibitory concentration ([2]; Table 2 test organism 6, S. epidermidis strain) of the same compound?
A: 0.8 µg/mL (≈ 0.612 µM)

Q: And the minimum inhibitory concentration ([2]; Table 2 test organism 8, S. epidermidis strain)?
A: 0.8 µg/mL (≈ 0.612 µM)

Q: And the minimum inhibitory concentration ([2]; Table 2 test organism 12, S. epidermidis strain)?
A: 0.8 µg/mL (≈ 0.612 µM)

Q: What about the minimum inhibitory concentration ([2]; Table 2 test organism 14, S. epidermidis strain) of the same compound?
A: 0.8 µg/mL (≈ 0.612 µM)

Q: What about the MIC ([2]; Table 5 organism 2 S. epidermidis, 50% Hum. Serum) of the same compound?
A: 6.1 µg/mL (≈ 4.66 µM)

Q: And the MIC ([2]; Table 5 organism 2 S. epidermidis, 50% Mse. Serum)?
A: 1.6 µg/mL (≈ 1.22 µM)

Q: What about the MIC ([2]; Table 5 organism 2 S. epidermidis, No Serum) of the same compound?
A: 0.8 µg/mL (≈ 0.612 µM)

Q: And the MIC ([2]; Table 5 organism 4 S. epidermidis, 50% Hum. Serum)?
A: 1.6 µg/mL (≈ 1.22 µM)

Q: And the MIC ([2]; Table 5 organism 4 S. epidermidis, 50% Mse. Serum)?
A: 1.6 µg/mL (≈ 1.22 µM)

Q: What about the MIC ([2]; Table 5 organism 4 S. epidermidis, No Serum) of the same compound?
A: 0.8 µg/mL (≈ 0.612 µM)

Q: And the MIC ([2]; Table 5 organism 5 S. epidermidis, 50% Hum. Serum)?
A: 0.8 µg/mL (≈ 0.612 µM)

Q: What about the MIC ([2]; Table 5 organism 5 S. epidermidis, 50% Mse. Serum) of the same compound?
A: 0.8 µg/mL (≈ 0.612 µM)

Q: And the MIC ([2]; Table 5 organism 5 S. epidermidis, No Serum)?
A: 0.8 µg/mL (≈ 0.612 µM)

Q: What about the minimum inhibitory concentration ([3]; Table 2 test organism 7, Staphylococcus haemolyticus) of the same compound?
A: 1.6 µg/mL (≈ 1.22 µM)

Q: What about the MIC ([3]; 50% Hum. Serum) of the same compound?
A: 6.3 µg/mL (≈ 4.82 µM)

Q: What about the MIC ([3]; 50% Mse. Serum) of the same compound?
A: 3.1 µg/mL (≈ 2.37 µM)

Q: And the MIC ([3]; No Serum)?
A: 1.6 µg/mL (≈ 1.22 µM)

Q: And the minimum inhibitory concentration (Streptococcus faecalis; Table 2 test organism 9, Streptococcus faecalis strain)?
A: 0.8 µg/mL (≈ 0.612 µM)

Q: What about the minimum inhibitory concentration (Streptococcus faecalis; Table 2 test organism 10, Streptococcus faecalis strain) of the same compound?
A: 0.8 µg/mL (≈ 0.612 µM)

Q: What about the MIC (Streptococcus faecalis; Table 5 organism 7 S. faecalis, 50% Hum. Serum) of the same compound?
A: 3.1 µg/mL (≈ 2.37 µM)

Q: What about the MIC (Streptococcus faecalis; Table 5 organism 7 S. faecalis, 50% Mse. Serum) of the same compound?
A: 3.1 µg/mL (≈ 2.37 µM)

Q: And the MIC (Streptococcus faecalis; Table 5 organism 7 S. faecalis, No Serum)?
A: 0.8 µg/mL (≈ 0.612 µM)

Q: What about the MIC (Streptococcus faecalis; Table 5 organism 8 S. faecalis, 50% Hum. Serum) of the same compound?
A: 6.3 µg/mL (≈ 4.82 µM)

Q: What about the MIC (Streptococcus faecalis; Table 5 organism 8 S. faecalis, 50% Mse. Serum) of the same compound?
A: 3.1 µg/mL (≈ 2.37 µM)

Q: And the MIC (Streptococcus faecalis; Table 5 organism 8 S. faecalis, No Serum)?
A: 0.8 µg/mL (≈ 0.612 µM)

Q: What about the minimum inhibitory concentration (Staphylococcus aureus; Table 2 test organism 1, S. aureus strain) of the same compound?
A: 0.8 µg/mL (≈ 0.612 µM)

Q: And the minimum inhibitory concentration (Staphylococcus aureus; Table 2 test organism 2, S. aureus strain)?
A: 0.8 µg/mL (≈ 0.612 µM)

Q: And the minimum inhibitory concentration (Staphylococcus aureus; Table 2 test organism 3, S. aureus strain)?
A: 0.8 µg/mL (≈ 0.612 µM)

Q: And the minimum inhibitory concentration (Staphylococcus aureus; Table 2 test organism 4, S. aureus strain)?
A: 0.4 µg/mL (≈ 0.306 µM)

Q: What about the minimum inhibitory concentration (Staphylococcus aureus; Table 2 test organism 5, S. aureus strain) of the same compound?
A: 0.8 µg/mL (≈ 0.612 µM)

Q: What about the MIC (Staphylococcus aureus; 50% Hum. Serum) of the same compound?
A: 0.8 µg/mL (≈ 0.612 µM)

Q: And the MIC (Staphylococcus aureus; 50% Mse. Serum)?
A: 0.8 µg/mL (≈ 0.612 µM)

Q: What about the MIC (Staphylococcus aureus; No Serum) of the same compound?
A: 0.8 µg/mL (≈ 0.612 µM)

Q: What about the minimum inhibitory concentration (Streptococcus pyogenes) of the same compound?
A: 0.1 µg/mL (≈ 0.0765 µM)
